The target in assay [1] is T1, BRM (Homo sapiens, UniProt P51531).
T1 construct: made in house; host or cells: High Five insect cells
The experiment in a line: ATPase catalytic activity of BRM, ADP-Glo in vitro biochemical assay. Conditions: 30 nM BRM, 400 μM ATP, read-out: BRM IP50.

Assay [2] concerns the target T2, BRG-1 (Homo sapiens, UniProt P51532).
T2 construct: made in house; host or cells: High Five insect cells
Put plainly: ATPase catalytic activity of BRG-1, ADP-Glo in vitro biochemical assay. As to conditions: 30 nM BRG-1, 400 μM ATP, read-out: BRG1 IP50.

Where two headings read alike, the source gives them in different places.

T1 sequence (P51531 whole entry): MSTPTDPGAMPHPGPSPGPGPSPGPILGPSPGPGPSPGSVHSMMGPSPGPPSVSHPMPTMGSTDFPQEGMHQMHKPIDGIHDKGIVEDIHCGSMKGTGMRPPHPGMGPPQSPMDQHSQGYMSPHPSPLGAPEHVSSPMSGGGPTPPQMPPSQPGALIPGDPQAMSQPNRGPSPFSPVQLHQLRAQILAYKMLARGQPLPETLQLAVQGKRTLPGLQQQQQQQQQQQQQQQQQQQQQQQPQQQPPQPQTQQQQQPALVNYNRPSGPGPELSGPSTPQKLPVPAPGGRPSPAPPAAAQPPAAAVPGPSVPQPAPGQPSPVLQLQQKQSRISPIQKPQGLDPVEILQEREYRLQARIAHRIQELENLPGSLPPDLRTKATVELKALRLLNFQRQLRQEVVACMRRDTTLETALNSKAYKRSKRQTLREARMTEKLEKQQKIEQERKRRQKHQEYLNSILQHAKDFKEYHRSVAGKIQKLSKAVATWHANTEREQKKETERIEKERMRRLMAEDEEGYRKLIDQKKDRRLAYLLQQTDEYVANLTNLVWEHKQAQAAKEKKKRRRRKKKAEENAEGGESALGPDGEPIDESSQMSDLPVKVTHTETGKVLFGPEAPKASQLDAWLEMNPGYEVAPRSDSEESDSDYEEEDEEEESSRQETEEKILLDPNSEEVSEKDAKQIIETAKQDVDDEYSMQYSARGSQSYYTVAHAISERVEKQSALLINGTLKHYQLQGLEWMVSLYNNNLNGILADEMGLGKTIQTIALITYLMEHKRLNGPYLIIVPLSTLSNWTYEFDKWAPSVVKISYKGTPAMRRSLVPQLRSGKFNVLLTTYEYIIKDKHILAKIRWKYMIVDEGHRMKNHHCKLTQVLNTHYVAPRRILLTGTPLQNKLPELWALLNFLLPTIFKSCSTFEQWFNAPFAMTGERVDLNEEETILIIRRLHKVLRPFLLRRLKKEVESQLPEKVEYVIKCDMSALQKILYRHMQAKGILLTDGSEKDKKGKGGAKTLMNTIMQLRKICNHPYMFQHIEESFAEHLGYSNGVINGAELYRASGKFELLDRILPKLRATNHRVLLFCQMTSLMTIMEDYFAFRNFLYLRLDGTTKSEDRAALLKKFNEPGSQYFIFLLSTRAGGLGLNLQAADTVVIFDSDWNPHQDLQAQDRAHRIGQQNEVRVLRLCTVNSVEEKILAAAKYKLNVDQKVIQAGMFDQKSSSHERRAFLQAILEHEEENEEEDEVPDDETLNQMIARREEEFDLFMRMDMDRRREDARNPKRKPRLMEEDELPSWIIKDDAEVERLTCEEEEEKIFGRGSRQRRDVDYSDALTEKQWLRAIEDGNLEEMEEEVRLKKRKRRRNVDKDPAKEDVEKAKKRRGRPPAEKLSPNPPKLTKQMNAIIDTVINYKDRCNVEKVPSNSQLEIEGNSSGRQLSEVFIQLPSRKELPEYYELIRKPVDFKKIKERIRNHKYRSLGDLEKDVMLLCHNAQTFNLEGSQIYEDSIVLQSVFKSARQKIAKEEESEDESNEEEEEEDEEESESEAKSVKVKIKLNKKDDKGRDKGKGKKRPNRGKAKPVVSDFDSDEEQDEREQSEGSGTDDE
T2 sequence (P51532 whole entry): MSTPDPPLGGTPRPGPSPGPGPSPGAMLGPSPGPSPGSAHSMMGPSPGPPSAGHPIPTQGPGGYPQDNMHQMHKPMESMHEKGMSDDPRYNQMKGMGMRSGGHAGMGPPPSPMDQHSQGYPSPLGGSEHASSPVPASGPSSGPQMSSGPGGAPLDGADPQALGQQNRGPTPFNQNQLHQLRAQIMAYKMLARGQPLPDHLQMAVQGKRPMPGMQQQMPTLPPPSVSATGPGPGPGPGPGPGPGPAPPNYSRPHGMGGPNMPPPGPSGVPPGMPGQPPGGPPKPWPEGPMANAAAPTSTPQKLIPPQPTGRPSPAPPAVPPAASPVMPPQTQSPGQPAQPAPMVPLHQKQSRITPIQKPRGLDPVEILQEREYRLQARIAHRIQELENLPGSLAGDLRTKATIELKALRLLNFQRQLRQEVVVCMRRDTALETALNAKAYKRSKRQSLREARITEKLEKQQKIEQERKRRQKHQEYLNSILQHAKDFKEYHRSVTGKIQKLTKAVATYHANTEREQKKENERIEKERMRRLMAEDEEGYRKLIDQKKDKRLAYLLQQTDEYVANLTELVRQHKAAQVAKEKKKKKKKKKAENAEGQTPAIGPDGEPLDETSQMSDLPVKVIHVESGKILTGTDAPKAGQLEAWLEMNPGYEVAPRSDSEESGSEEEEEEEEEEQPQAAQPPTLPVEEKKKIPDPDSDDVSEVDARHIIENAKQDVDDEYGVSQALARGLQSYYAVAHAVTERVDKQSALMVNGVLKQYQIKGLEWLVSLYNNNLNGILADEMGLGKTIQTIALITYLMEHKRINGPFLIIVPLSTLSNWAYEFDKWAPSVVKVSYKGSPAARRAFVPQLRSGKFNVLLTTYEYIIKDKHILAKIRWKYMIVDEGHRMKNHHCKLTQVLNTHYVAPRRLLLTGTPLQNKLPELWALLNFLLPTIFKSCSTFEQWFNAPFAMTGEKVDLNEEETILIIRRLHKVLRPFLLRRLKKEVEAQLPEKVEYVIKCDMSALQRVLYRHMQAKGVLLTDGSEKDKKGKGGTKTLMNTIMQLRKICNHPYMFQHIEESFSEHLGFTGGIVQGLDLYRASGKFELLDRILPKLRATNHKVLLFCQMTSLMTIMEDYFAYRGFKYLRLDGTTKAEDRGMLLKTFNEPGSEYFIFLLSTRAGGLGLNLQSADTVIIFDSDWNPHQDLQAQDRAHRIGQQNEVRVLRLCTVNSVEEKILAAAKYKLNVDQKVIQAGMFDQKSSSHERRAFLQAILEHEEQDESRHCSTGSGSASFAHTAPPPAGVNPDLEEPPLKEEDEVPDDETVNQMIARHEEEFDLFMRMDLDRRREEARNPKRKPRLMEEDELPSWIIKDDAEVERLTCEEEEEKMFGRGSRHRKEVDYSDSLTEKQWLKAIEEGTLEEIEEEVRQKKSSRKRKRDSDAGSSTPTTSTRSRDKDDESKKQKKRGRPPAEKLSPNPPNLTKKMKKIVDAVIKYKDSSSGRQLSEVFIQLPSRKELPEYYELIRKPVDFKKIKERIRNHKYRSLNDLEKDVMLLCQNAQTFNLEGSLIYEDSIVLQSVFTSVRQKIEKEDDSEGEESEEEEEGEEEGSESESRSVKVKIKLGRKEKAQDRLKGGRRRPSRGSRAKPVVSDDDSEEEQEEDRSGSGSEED

`CCCOC(=O)N1CCC(c2csc(NC(=O)CNC(=O)c3ccn(S(C)(=O)=O)c3)n2)CC1` [Compound 765, propyl 4-[2-[[2-[(1-methylsulfonylpyrrole-3-carbonyl)amino]acetyl]amino]thiazol-4-yl]piperidine-1-carboxylate]: the IC50 in assay [1] (ATPase catalytic activity) was over 10 nM; in assay [2] (ATPase catalytic activity) it was over 100 nM.
Taken in the same sequence, the figures for `CS(=O)(=O)n1ccc(C(=O)NCC(=O)Nc2nc(-c3cccc(N4CC[C@@H]5OCC[C@H]5C4)n3)cs2)c1` [Compound 766] were under 10 nM and under 10 nM.
The corresponding values for `C[C@@H]1CN(c2cccc(-c3csc(NC(=O)[C@H](C)NC(=O)c4ccn(S(C)(=O)=O)c4)n3)n2)C[C@H](C)O1` [Compound 767] are under 10 nM and over 10 nM.
In the case of `C[C@@H]1CN(c2cccc(-c3csc(NC(=O)[C@@H](C)NC(=O)c4ccn(S(C)(=O)=O)c4)n3)n2)C[C@H](C)O1` [Compound 768], the IC50 in assay [1] (ATPase catalytic activity) and in assay [2] (ATPase catalytic activity) was over 100 nM each time.
Turning to `C[C@@H]1CN(c2cccc(-c3csc(NC(=O)[C@H](C)NC(=O)c4ccn(C(C)(C)C)c4)n3)n2)C[C@H](C)O1` [Compound 769], the IC50 in assay [1] (ATPase catalytic activity) and in assay [2] (ATPase catalytic activity) was over 10 nM throughout.
As for `CCCOC(=O)N1CCC[C@H](c2csc(NC(=O)CNC(=O)c3ccn(S(C)(=O)=O)c3)n2)C1` [Compound 771], the IC50 in assay [1] (ATPase catalytic activity) and in assay [2] (ATPase catalytic activity) was over 10 nM each time.
Consider `COC[C@H](NC(=O)c1ccn(S(C)(=O)=O)c1)C(=O)Nc1nc(-c2cccc(N3CC[C@H]4COC[C@@H]4C3)n2)cs1` [Compound 772], for which the IC50 in assay [1] (ATPase catalytic activity) and in assay [2] (ATPase catalytic activity) was under 10 nM throughout.
Regarding `COC[C@H](NC(=O)c1ccn(S(C)(=O)=O)c1)C(=O)Nc1nc(-c2cccc(N3CC[C@@H]4COC[C@H]4C3)n2)cs1` [Compound 773], the IC50 in assay [1] (ATPase catalytic activity) and in assay [2] (ATPase catalytic activity) was under 10 nM throughout.
Take `COC[C@H](NC(=O)c1ccn(S(C)(=O)=O)c1)C(=O)Nc1nc(-c2cccc(N3CC[C@H]4OCC[C@@H]4C3)n2)cs1` [Compound 774]: the IC50 in assay [1] (ATPase catalytic activity) and in assay [2] (ATPase catalytic activity) was under 10 nM in each case.
On to `COC[C@H](NC(=O)c1ccn(S(C)(=O)=O)c1)C(=O)Nc1nc(-c2cccc(N3CC[C@@H]4OCC[C@H]4C3)n2)cs1` [Compound 775], for which the IC50 was under 10 nM in assay [1] (ATPase catalytic activity) and over 10 nM in assay [2] (ATPase catalytic activity).
The corresponding values for `CS(=O)(=O)n1ccc(C(=O)NCC(=O)Nc2nc(-c3cccc(C4CCCOC4)c3)cs2)c1` (centres unmarked) [Compound 776, 1-methylsulfonyl-N-[2-oxo-2-[[4-(3-tetrahydropyran-3-ylphenyl)thiazol-2-yl]amino]ethyl]pyrrole-3-carboxamide] are over 10 nM and over 10 nM.
Taken in the same sequence, the figures for `C[C@@H]1CN(c2cccc(-c3csc(NC(=O)CNC(=O)c4ccn(C(C)(C)C)n4)n3)c2)C[C@H](C)O1` [Compound 777] were over 10 nM and over 10 nM.
As for `C[C@@H]1CN(c2cccc(-c3csc(NC(=O)CNC(=O)c4cn(C(C)(C)CO)cn4)n3)n2)C[C@H](C)O1` [Compound 778], the IC50 in assay [1] (ATPase catalytic activity) was over 10 nM; in assay [2] (ATPase catalytic activity), over 100 nM.
Taken in the same sequence, the figures for `Cn1ccc(-c2cccc(-c3csc(NC(=O)CNC(=O)c4cn(C5(C#N)CC5)cn4)n3)c2)n1` [Compound 780] were over 100 nM and over 100 nM.
The corresponding values for `C[C@@H]1CN(c2cccc(-c3csc(NC(=O)CNC(=O)c4cn(C5(C#N)CC5)cn4)n3)n2)C[C@H](C)O1` [Compound 781] are over 10 nM and over 100 nM.
Regarding `Cn1ccc2ccc(-c3csc(NC(=O)CNC(=O)c4ncn(C56CC(C5)C6)n4)n3)cc2c1=O` [Compound 782], the IC50 in assay [1] (ATPase catalytic activity) and in assay [2] (ATPase catalytic activity) was over 100 nM each time.
With `CN1CCOc2ccc(-c3csc(NC(=O)CNC(=O)c4cn(C(C)(C)C#N)cn4)n3)cc21` [Compound 784], the IC50 in assay [1] (ATPase catalytic activity) and in assay [2] (ATPase catalytic activity) was over 10 nM in each case.
For `CC(C)(C#N)n1cnc(C(=O)NCC(=O)Nc2nc(-c3cc(F)c4c(c3)OCC4)cs2)c1` [Compound 785], the IC50 in assay [1] (ATPase catalytic activity) and in assay [2] (ATPase catalytic activity) was over 10 nM each time.
Regarding `C[C@@H]1CN(c2cccc(-c3csc(NC(=O)CNC(=O)c4ccn(C(C)(C)C#N)n4)n3)n2)C[C@H](C)O1` [Compound 786], the IC50 was under 10 nM in assay [1] and over 10 nM in assay [2].
Taken in the same sequence, the figures for `CN1CCOc2ccc(-c3csc(NC(=O)CNC(=O)c4ccn(C(C)(C)C#N)n4)n3)cc21` [Compound 787] were over 10 nM and over 10 nM.
Taken in the same sequence, the figures for `N#CC1(n2cnc(C(=O)NCC(=O)Nc3nc(-c4cc(F)c5c(c4)OCC5)cs3)c2)CC1` [Compound 788] were over 100 nM and over 100 nM.
`Cn1ccc(-c2cccc(-c3csc(NC(=O)CNC(=O)c4ccn(C(C)(C)C#N)n4)n3)c2)n1` [Compound 790]: the IC50 in assay [1] and in assay [2] was over 10 nM in each case.
Take `CC(C)(C#N)n1ccc(C(=O)NCC(=O)Nc2nc(-c3cc(F)c4c(c3)OCC4)cs2)n1` [Compound 791]: the IC50 in assay [1] and in assay [2] was over 10 nM each time.
With `C[C@H](NC(=O)c1ccn(C(C)(C)C)n1)C(=O)Nc1nc(-c2ccc3ccn(C)c(=O)c3c2)cs1` [Compound 792], the IC50 in assay [1] and in assay [2] was over 100 nM in each case.
As for `Cn1ccc2ccc(-c3csc(NC(=O)CNC(=O)c4ccn(C5(C#N)CC5)n4)n3)cc2c1=O` [Compound 793], the IC50 in assay [1] and in assay [2] was over 10 nM in each case.
`N#CC1(n2ccc(C(=O)NCC(=O)Nc3nc(-c4cccc(OC(F)(F)F)c4)cs3)n2)CC1` [Compound 794]: the IC50 in assay [1] and in assay [2] was over 100 nM throughout.
Take `C[C@@H]1CN(c2cccc(-c3csc(NC(=O)[C@H](C)NC(=O)c4ccn(C5(C#N)CC5)n4)n3)n2)C[C@H](C)O1` [Compound 795]: the IC50 in assay [1] is over 10 nM; in assay [2] it was over 100 nM.
The corresponding values for `N#CC1(n2ccc(C(=O)NCC(=O)Nc3nc(-c4cc(F)cc(OC5CC5)c4)cs3)n2)CC1` [Compound 796] are over 100 nM and over 100 nM.
With `C[C@@H]1CN(c2cccc(-c3csc(NC(=O)[C@H](C)NC(=O)c4cn(C5(C)COC5)cn4)n3)n2)C[C@H](C)O1` [Compound 797], the IC50 in assay [1] and in assay [2] was over 100 nM in each case.
For `Cn1ccc(-c2cccc(-c3csc(NC(=O)CNC(=O)c4ccn(C5(C)COC5)n4)n3)c2)n1` [Compound 798], the IC50 in assay [1] and in assay [2] was over 100 nM in each case.
Regarding `C[C@H](NC(=O)c1cn(C2(C)COC2)cn1)C(=O)Nc1nc(-c2ccc3ccn(C)c(=O)c3c2)cs1` [Compound 801], the IC50 in assay [1] and in assay [2] was over 100 nM in each case.
With `COC[C@H](NC(=O)c1cn(C(C)(C)C#N)cn1)C(=O)Nc1nc(-c2ccc3ccn(C)c(=O)c3c2)cs1` [Compound 802], the IC50 in assay [1] and in assay [2] was over 10 nM in each case.
In the case of `N#CC1(n2ccc(C(=O)NCC(=O)Nc3nc(-c4cc(F)c5c(c4)OCC5)cs3)n2)CC1` [Compound 803], the IC50 was over 10 nM in assay [1] and over 100 nM in assay [2].
Taken in the same sequence, the figures for `COC[C@H](NC(=O)c1cn(C2(C)COC2)cn1)C(=O)Nc1nc(-c2ccc3ccn(C)c(=O)c3c2)cs1` [Compound 804] were over 100 nM and over 100 nM.

Values taken from patent publication US20230079819A1, “COMPOUNDS AND USES THEREOF” (Foghorn Therapeutics Inc., priority 2019, published 2023).
